Legend:
[1] = system: platelets; details: metabolite; in words; cited from earlier work
[2] = metabolite versus anagrelide; cited from earlier work
[3] = system: rats with monocrotaline induced pulmonary arterial hypertension; assay: Hemodynamic evaluation in anesthetized rats treated with monocrotaline to induce pulmonary arterial hypertension; assay type: in vivo, Sprague-Dawley rats; details: for RV/LV + S: Fulton's Index; for RV/LV + S / HR / HW/BW / Heart Wt / LV Wt / Lung Wt / MAP / Mean PAP / RV Wt / RV/BW / Systolic PAP: 28 days, MCT rats, mean ± SEM
Description: The effects of sildenafil and anagrelide were evaluated in rats with monocrotaline induced pulmonary arterial hypertension. Male Sprague-Dawley rats were orally administered vehicle (variable, see below), anagrelide (1 mg/kg given once daily for 28 days or 2 mg/kg total daily dose, divided into a BID regimen given every day for 28 days starting on Day 1), or sildenafil (30 mg/kg, administered twice daily) (n=10 in each group). Rats received a single injection of monocrotaline (60 mg/kg, s.c.) on Study Day 1. On the twenty-eighth day following monocrotaline dosing, the rats were anesthetized with ketamine/xylazine for terminal monitoring of pulmonary and systemic arterial pressures along with heart rate. The study design for the test article and vehicle administrations are detailed below: […]

[4] = system: rat monocrotaline (MCT) model of PAH; assay: Pulmonary arterial hypertension efficacy model: monocrotaline rat; assay type: in vivo, Sprague-Dawley rats; details: in words
Description: Adult male Sprague-Dawley rats (287±4 g) were obtained from Charles River Laboratories (Raleigh, N.C.). Animals housed individually in a temperature/humidity controlled room with 12-hour light/dark cycles, had free access to water and food and were acclimated for one week prior to the study. Rats were randomly assigned to one of the experimental groups (n=10 per group). Rats in groups 1 and 2 served as healthy controls; the remaining rats were injected subcutaneously on Day 0 with 60 mg/kg body weight monocrotaline, the toxic alkaloid of Crotalaria spectabilis, (dissolved in DMSO at a concentration of 60 mg/ml, Sigma Aldrich, St. Louis, Mo.). On days 1-21, the rats were dosed via oral gavage (2 ml/kg) with vehicle (PBS), or the test compound—Anagrelide. Rats were weighed daily, and the dosages of test compound adjusted appropriately.
Monocrotaline (MCT) is an 11-membered macrocyclic pyrrolizidine plant alkaloid. A single SQ injection into rats results in hepatic generation of toxic metabolite—MCT pyrrole. Phase II metabolism of MCT is through glutathione conjugation. Reactive metabolite is transported to lungs, injuring pulmonary vasculature.

[5] = system: platelets; details: preclinical pharmacology data; in words; cited from earlier work
[6] = Sildenafil 60 mg/kg/day bid oral
[7] = daily oral doses for three weeks
[8] = 2 mg/kg/day given BID, after 28 days, in words
[9] = Anagrelide 1 mg/kg once daily oral
[10] = Anagrelide 2 mg/kg/day bid oral

## NC1=Nc2ccc(Cl)c(Cl)c2CN1 [RL603, 5,6-dichloro-3,4-dihydroquinazolin-2-ylamine]
[1]
  participation in the overall effect of AGRYLIN: does not participate

## O=C1NC2=Nc3ccc(Cl)c(Cl)c3CN2C1O (stereo not drawn) [BCH24426, 3-hydroxy anagrelide]
[2]
  Exposure as measured by plasma AUC compared to anagrelide: approximately 2 fold

## CCCc1nn(C)c2c(=O)[nH]c(-c3cc(S(=O)(=O)N4CCN(C)CC4)ccc3OCC)nc12 [Sildenafil]
[3]; [6]
  RV/LV + S: 0.51 ± 0.03
  HR: 278 ± 21 bpm
  HW/BW: 3.89 ± 0.17
  Heart Wt: 1.24 ± 0.02 g
  LV Wt: 0.74 ± 0.02 g
  Lung Wt: 2.36 ± 0.13 g
  MAP: 69 ± 5 mm Hg
  Mean PAP: 38± 6 mm Hg
  RV Wt: 0.38 ± 0.02 g
  RV/BW: 1.19 ± 0.09
  Systolic PAP: 46 ± 7 mm Hg

## O=C1CN2Cc3c(ccc(Cl)c3Cl)N=C2N1 [Anagrelide, anagrelide]
[4]; daily oral doses for three weeks after MCT 60 mg/kg s.c.
  development of PAH: prevent the development of PAH
[4]; [7]
  hypertrophy of the right ventricle: prevents
  monocrotaline (MCT)-induced elevations in pressure in the pulmonary arterial circuit: prevents
[3]; [8]
  mean pulmonary arterial pressure compared to the vehicle group: differences
  systolic pulmonary arterial pressure compared to the vehicle group: reduction
[3]; [9]
  HR: 325 ± 28 bpm
  HW/BW: 4.34 ± 0.45
  Heart Wt: 1.37 ± 0.03 g
  LV Wt: 0.76 ± 0.01 g
  Lung Wt: 2.10 ± 0.19 g
  MAP: 59 ± 5 mm Hg
  Mean PAP: 36 ± 2 mm Hg
  RV Wt: 0.47 ± 0.01 g
  RV/BW: 1.49 ± 0.16
  Systolic PAP: 44 ± 2 mm Hg
  RV/LV + S: 0.62 ± 0.01
[3]; [10]
  HR: 258 ± 10 bpm
  HW/BW: 3.98 ± 0.24
  Heart Wt: 1.21 ± 0.04 g
  LV Wt: 0.69 ± 0.02 g
  Lung Wt: 2.21 ± 0.07 g
  MAP: 52 ± 6 mm Hg
  Mean PAP: 36 ± 2 mm Hg
  RV Wt: 0.41 ± 0.02 g
  RV/BW: 1.35 ± 0.12
  Systolic PAP: 43 ± 4 mm Hg
  RV/LV + S: 0.59 ± 0.04
[3]; at either dose, in words
  hypertrophy when correcting RV (wt) by body weight: decrease in hypertrophy
[3]; in words
  Mean arterial pressure compared to vehicle: lower
  right ventricular hypertrophy (RV/LV+S, Fulton's Index) compared to vehicle: no change
[5]
  effect on other cellular components of the blood: no significant effect
  inhibition of platelet aggregation: potent inhibitor

From patent US10022377B2, “Method of treating hypertension” (Cipla Limited, priority 2015, dated 2018)
